# Experimental data from ChEMBL document CHEMBL4219098, “Unprecedented sugar bridged bisindoles selective inhibiting glioma stem cells” (Bioorg Med Chem, 2018).
# Active and inactive are the calls of the source. The rule behind the calls is not given here.
# Tests used:
# [1] = species on record: Homo sapiens; experiment: Induction of apoptosis in human GSC18 cells assessed as increase in caspase12 mRNA levels at 25 uM after 10 days by RT-PCR analysis relative to DMSO; assay type: functional, cell-based
# [2] = tested on: HEK-293T; experiment: Cytotoxicity against human 293T cells assessed as cell growth inhibition at 25 uM by phenotypic screening-based assay
# [3] = species on record: Homo sapiens; experiment: Antiproliferative activity against human GSC18 cells assessed as reduction in BrdU-positive proliferating cells at 25 uM after 72 hrs by BrdU incorporation assay relative to DMSO; assay type: functional, cell-based
# [4] = Cytotoxicity against human HAC cells assessed as cell growth inhibition at 25 uM by phenotypic screening-based assay
# [5] = species on record: Homo sapiens; experiment: Induction of apoptosis in human GSC18 cells assessed as increase in calpain1 mRNA levels at 25 uM after 10 days by RT-PCR analysis relative to DMSO; assay type: functional, cell-based
# [6] = tested on: HEK-293T; experiment: Cytotoxicity against human 293T cells assessed as reduction in cell viability after 4 days by MTS assay; assay type: cell-based; conditions: 96 h
# [7] = species on record: Homo sapiens; experiment: Induction of intrinsic apoptosis in human GSC18 cells assessed as increase in apaf1 mRNA levels at 25 uM after 10 days by RT-PCR analysis relative to DMSO; assay type: functional, cell-based
# [8] = Cytotoxicity against human GSC12 cells assessed as reduction in cell viability after 4 days by MTS assay; assay type: functional, cell-based; conditions: GSC12, 96 h
# [9] = species on record: Homo sapiens; experiment: Cytotoxicity against human GSC18 cells assessed as cell growth inhibition at 25 uM by phenotypic screening-based assay; assay type: functional
# [10] = species on record: Homo sapiens; experiment: Induction of intrinsic apoptosis in human GSC18 cells assessed as increase in bid mRNA levels at 25 uM after 10 days by RT-PCR analysis relative to DMSO; assay type: functional, cell-based
# [11] = tested on: Homo sapiens; experiment: Antiproliferative activity against human GSC18 cells assessed as decrease in number of clonal spheres at 25 uM administered 2 weeks post clonal sphere formation measured after 10 days by crystal violet-staining based assay; assay type: functional, cell-based
# [12] = species on record: Homo sapiens; experiment: Induction of extrinsic apoptosis in human GSC18 cells assessed as increase in TNFalpha mRNA levels at 25 uM after 10 days by RT-PCR analysis relative to DMSO; assay type: functional, cell-based
# [13] = species on record: Homo sapiens; experiment: Induction of intrinsic apoptosis in human GSC18 cells assessed as increase in bcl-2 mRNA levels at 25 uM after 10 days by RT-PCR analysis relative to DMSO; assay type: functional, cell-based
# [14] = species on record: Homo sapiens; experiment: Induction of extrinsic apoptosis in human GSC18 cells assessed as increase in IL1 mRNA levels at 25 uM after 10 days by RT-PCR analysis relative to DMSO; assay type: functional, cell-based
# [15] = tested on: Homo sapiens; experiment: Antiproliferative activity against human GSC18 cells assessed as damage to clonal spheres morphology at 25 uM administered 2 weeks post clonal sphere formation measured after 10 days by crystal violet-staining based assay; assay type: functional, cell-based
# [16] = species on record: Homo sapiens; experiment: Induction of apoptosis in human GSC18 cells assessed as increase in caspase-3 positive apoptotic cells at 25 uM by immunofluorescence-staining based microscopic analysis; assay type: functional, cell-based
# [17] = species on record: Homo sapiens; experiment: Induction of intrinsic apoptosis in human GSC18 cells assessed as increase in bax mRNA levels at 25 uM after 10 days by RT-PCR analysis relative to DMSO; assay type: functional, cell-based
# [18] = Cytotoxicity against human HAC cells assessed as reduction in cell viability after 4 days by MTS assay; assay type: cell-based; conditions: 96 h
# [19] = Cytotoxicity against human GSC18 cells assessed as reduction in cell viability after 4 days by MTS assay; assay type: functional, cell-based; conditions: GSC18, 96 h
# [20] = species on record: Homo sapiens; experiment: Cytotoxicity against human GSC12 cells assessed as cell growth inhibition at 25 uM by phenotypic screening-based assay; assay type: functional
SMILES,Activity [1],Activity [2],Activity [3],Activity [4],Activity [5],IC50 [6] [µM],Activity [7],IC50 [8] [µM],growth inhibition (GI) [9],Activity [10],Activity [11],Activity [12],Activity [13],Activity [14],Activity [15],Activity [16],Activity [17],IC50 [18] [µM],IC50 [19] [µM],growth inhibition (GI) [20]
C=C[C@H]1[C@H](O[C@@H]2O[C@H](CO[C@H]3C[C@@]45c6ccccc6N[C@]4(O3)[C@@H]3C[C@@H](/C(=C\C)C=[N+]3[O-])[C@H]5CC(=O)OC)[C@@H](O)[C@H](O)[C@H]2O)OC=C2C(=O)N3CCc4c([nH]c5ccccc45)[C@@H]3C[C@H]21,inactive,Non-Toxic,Active,Non-Toxic,inactive,> 90,inactive,30.9,Active,inactive,Active,Active,inactive,Active,Active,Active,inactive,> 90,19.2,Active
C=C[C@H]1[C@H](O[C@@H]2O[C@H](CO[C@H]3C[C@@]45c6ccccc6N[C@]4(O3)[C@@H]3C[C@@H](/C(=C/C)C=[N+]3[O-])[C@H]5CC(=O)OC)[C@@H](O)[C@H](O)[C@H]2O)OC=C2C(=O)N3CCc4c([nH]c5ccccc45)[C@@H]3C[C@H]21,inactive,Non-Toxic,Active,Non-Toxic,inactive,> 90,inactive,20.7,Active,inactive,Active,Active,inactive,Active,Active,Active,inactive,> 90,16.1,Active
CC(=O)O[C@H]1C(=O)[C@@]2(C)[C@H]([C@H](OC(=O)c3ccccc3)[C@]3(O)C[C@H](OC(=O)[C@H](O)[C@@H](NC(=O)c4ccccc4)c4ccccc4)C(C)=C1C3(C)C)[C@]1(OC(C)=O)CO[C@@H]1C[C@@H]2O [PACLITAXEL],–,–,–,–,–,0.0023,–,12.5,–,–,–,–,–,–,–,–,–,0.0121,10.4,–
